Data on 22 molecules can be found in US11697639B2, “Quaternary ammonium salt compound, preparation method therefor and use thereof” (WEST CHINA HOSPITAL, SICHUAN UNIVERSITY, priority 2018, dated 2023).

Where a name gives a salt, the structure may show the parent alone.

Assay type in all cases: in vivo
Test [1] concerns rat's sciatic nerve. Nature of the test: Rat sciatic nerve block, sensory block tested with von Frey stimulator. The note with it: 0.5 mL injected near sciatic nerve, test drugs 20 mmol/mL in distilled water, lidocaine 2%, levobupivacaine 0.75%; for Local anesthesia onset time (Median): 8 rats per group; for Time of sensory block (Median): von Frey. The protocol:
(§1) For the dosage, the lidocaine group is 2% aqueous solution, the levobupivacaine group is 0.75% aqueous solution, and test drug groups are all distilled water solution at the concentration of 20 mmol/mL.
(§2) The injection volume for each rat or the control was 0.5 mL, which was guided by a nerve locator and injected near the rat's sciatic nerve. Using von Frey stimulator, the rats were stimulated the soles of the feet in the injected side, to observe the effect of local anesthesia. Meanwhile, Postural Extensor Thrust (PET) was used to evaluate the motor function of the rat: the rat was lifted vertically and the hindlimb in the injected side pedaled on the platform of the electronic balance. […] When the limb was completely paralyzed, the reading was the limb's own weight, about 20 g. If the measured value was more than half of the difference between the baseline and the limb weight, the motor function was regarded as recovery, and if the value was less than or equal to this difference, the motor function was regarded as loss.

The subject of another test is back skin of rat. Nature of the test: Local anesthetic effect by subcutaneous infiltration in rat back skin (Von Frey 100 g). The note with it: 0.5 mL in saline, compound 6 mmol/L, bupivacaine 23 mmol/L, 10 rats per compound. The protocol:
After the back of rat weighing 250-300 g was shaved and disinfected, a circle with a diameter of about 1.5 cm was drawn on the side of the exposed back, and the circle is divided into 6 equal parts. […] Among the Von Frey fiber yarns, the one with a strength of 100 g was bound to the needle for local skin stimulation. One minute After the drug was injected, the above method was used to stimulate in 6 divisions. […] If back skin contraction was observed, the local anesthetic effect was considered as loss. […] Each compound was tested with 10 rats.

The test system of test [2] is rat's sciatic nerve. Nature of the test: Rat sciatic nerve block, motor function by Postural Extensor Thrust (PET). The note with it: 0.5 mL injected near sciatic nerve, test drugs 20 mmol/mL in distilled water, lidocaine 2%, levobupivacaine 0.75%. The protocol:
as §1, §2

On to `CCCCN1CCCC[C@H]1C(=O)Nc1c(C)cccc1C` [Levobupivacaine Hydrochloride, reference compound], for which, in the test with rat's sciatic nerve [1], the “Local anesthesia onset time (Median)” value is 1 min and the “Time of sensory block (Median)” value stood at 2.5 h. Besides, in the test on back skin of rat, the “Lasting time of local anesthesia (Median)” value (from here on “Lasting time”) was determined as 7 h and the “Local anesthesia onset time (Median)” value was 1 min. In addition, the “Time of motor block (Median)” value in the test on rat's sciatic nerve [2] was 2.5 h.
In the case of `CC[N+](C)(CCCN1CCCCC1C(=O)Nc1c(C)cccc1C)CC(=O)Nc1c(C)cccc1C` (stereo not shown) [example 1], in the test on rat's sciatic nerve [1], the “Local anesthesia onset time (Median)” value stood at 3 min and the “Time of sensory block (Median)” value was 24 h. In the test with back skin of rat, the “Lasting time” value is listed as 34 h and the “Local anesthesia onset time (Median)” value was 1 min. Moreover, the “Time of motor block (Median)” value in the test with rat's sciatic nerve [2] is 18 h.
For `CCC[N+](CC)(CCCCCN1CCCCC1C(=O)Nc1c(C)cccc1C)CC(=O)Nc1c(C)cc([N+](=O)[O-])cc1C` (stereo not shown) [example 3], in that order: 1 min, 27 h, 37 h, 1 min and 10 h.
For `CCC[N+](CC)(CCCCCCCCN1CCCCC1C(=O)Nc1c(C)cccc1C)CC(=O)Nc1c(C)ccc(Br)c1C` (stereo not shown) [example 4], in that order: 1 min, 33 h, 44 h, 2 min and 10 h.
Regarding `CCCC[N+](CC)(CCOCCN1CCCCC1C(=O)Nc1c(C)cccc1C)CC(=O)Nc1c(C)cccc1O` (stereo not shown) [example 5], in the test with rat's sciatic nerve [1], the “Local anesthesia onset time (Median)” value turned out to be 6 min and the “Time of sensory block (Median)” value was determined as 28 h. Further, in the test on back skin of rat, the “Lasting time” value was 68 h and the “Local anesthesia onset time (Median)” value was 1 min. In addition, the “Time of motor block (Median)” value with rat's sciatic nerve [2] came to 11 h.
With `CC[N+](C)(CCCN1CCCCC1C(=O)Nc1c(C)cccc1C)CC(=O)Nc1c(C)cccc1C.O=C(O)c1ccccc1.[Br-]` (stereo not shown) [example 14], in the test on rat's sciatic nerve [1], the “Local anesthesia onset time (Median)” value stood at 3 min and the “Time of sensory block (Median)” value is recorded as 32 h. Moreover, in the test on rat's sciatic nerve [2], the “Time of motor block (Median)” value is reported as 18 h.
For `CCC[N+](CC)(CCCCCCCCN1CCCCC1C(=O)Nc1c(C)cccc1C)CC(=O)Nc1c(C)cccc1C.Cl.[Br-]` (stereo not shown) [example 15], in that order: 2 min, 38 h and 25 h.
For `CC[N+](C)(CCCN1CCCC[C@@H]1C(=O)Nc1c(C)cccc1C)CC(=O)Nc1c(C)cccc1C` (stereo partly shown) [example 16], in that order: 1 min, 25 h and 19 h.
For `CCC[N+](CC)(CCCCCCCCN1CCCCC1C(=O)Nc1c(C)cccc1C)CC(=O)Nc1c(C)cccc1C.[Br-]` (stereo not shown) [example 17], in that order: 5 min, 24 h and 17 h.
Regarding `Br.CCC[N+](CC)(CCCN1CCCCC1C(=O)Nc1c(C)ccc(S)c1C)CC(=O)Nc1c(C)cc(O)cc1C.[Br-]` (stereo not shown) [example 18], in the test on rat's sciatic nerve [1], the “Local anesthesia onset time (Median)” value turned out to be 1 min and the “Time of sensory block (Median)” value is recorded as 31 h. In addition, the “Time of motor block (Median)” value in the test with rat's sciatic nerve [2] was found to be 21 h.
For `CCC[N+](CC)(CCCCCCCCN1CCCC[C@H]1C(=O)Nc1c(C)cccc1C)CC(=O)Nc1c(C)cccc1C.[Br-]` (stereo partly shown) [example 19], in that order: 1 min, 29 h and 22 h.
With `CCC[N+](CC)(CCCCN1C(C)CCCC1C(=O)Nc1c(C)cccc1C(C)C)CC(=O)Nc1c(C)cccc1C(C)C.[Br-]` (stereo not shown) [example 20], in the test with rat's sciatic nerve [1], the “Local anesthesia onset time (Median)” value worked out at 2 min and the “Time of sensory block (Median)” value was found to be 25 h. The “Time of motor block (Median)” value in the test with rat's sciatic nerve [2] stood at 20 h.
For `CCC[N+](CC)(CCCCCCCCN1CCCCC1C(=O)Nc1c(C)cccc1C)CC(=O)Nc1c(C)cccc1C.[Br-]` (stereo not shown) [example 21], in that order: 1 min, 24 h and 18 h.
For `CCC[N+](CC)(CCCCCCCN1CCC(OC)C[C@@H]1C(=O)Nc1c(C)cccc1C)CC(=O)Nc1c(C)cccc1C.[Br-]` (stereo partly shown) [example 22], in that order: 3 min, 29 h and 18 h.
For `CCCCN(C(=O)[C@@H]1CCCCN1CCCCCCC[N+](CC)(CCC)CC(=O)Nc1c(C)cccc1C)c1c(C)cccc1C.[Br-]` (stereo partly shown) [example 23], in that order: 2 min, 35 h and 28 h.
For the molecule `CCC[N+](CC)(CCCCCCCN1CCCCC1C(=O)Nc1c(C)ccc(Cl)c1C)CC(=O)Nc1c(C)ccc(C#N)c1C.[Br-]` (stereo not shown) [example 24], in the test on rat's sciatic nerve [1], the “Local anesthesia onset time (Median)” value was found to be 1 min and the “Time of sensory block (Median)” value was found to be 24 h. For the same molecule, the “Time of motor block (Median)” value with rat's sciatic nerve [2] stood at 16 h.
Turning to `CCC[N+](CC)(CCCCCCCCN1CCCC[C@@H]1C(=O)Nc1c(C)cccc1C)CC(=O)Nc1c(C)cccc1C.O=C(O)CC(O)(CC(=O)O)C(=O)O.[Br-]` (stereo partly shown) [example 25], in the test on rat's sciatic nerve [1], the “Local anesthesia onset time (Median)” value is 5 min and the “Time of sensory block (Median)” value stood at 32 h. Further, the “Time of motor block (Median)” value with rat's sciatic nerve [2] was found to be 24 h.
For `CCC[N+](CC)(CCCCCCCCN1CCCC1C(=O)Nc1c(C)ccc(C#N)c1C)CC(=O)Nc1c(C)ccc(C(=O)OC)c1C.[Br-]` (stereo not shown) [example 26], in that order: 3 min, 25 h and 18 h.
For `CCCC[N+](CC)(CCCCCCN1CCCCC1C(=O)Nc1c(C)cc([N+](=O)[O-])cc1C)CC(=O)Nc1c(C)cc(C(=O)O)cc1C.[Br-]` (stereo not shown) [example 27], in that order: 2 min, 28 h and 22 h.
For `CCC[N+](CC)(CCCCCCCN1CCCC[C@@H]1C(=O)Nc1c(C)ccc(C(=O)O)c1C)CC(=O)Nc1c(C)ccc(OC)c1C.[Br-]` (stereo partly shown) [example 28], in that order: 4 min, 26 h and 18 h.
As for `CCC[N+](CC)(CCCCCCCCN1CCCCC1C(=O)Nc1c(C)cc(OC)cc1C)CC(=O)Nc1c(C)ccc([N+](=O)[O-])c1C.[Br-]` (stereo not shown) [example 29], in the test with rat's sciatic nerve [1], the “Local anesthesia onset time (Median)” value stood at 1 min and the “Time of sensory block (Median)” value stood at 33 h. Besides, the “Time of motor block (Median)” value with rat's sciatic nerve [2] worked out at 28 h.
For `CCC[N+](CC)(CCCN1CCCC[C@@H]1C(=O)Nc1c(C)ccc(C(=O)OC)c1C)CC(=O)Nc1c(C)ccc(N)c1C.O=C(O)C(O)C(O)C(=O)O.[Br-]` (stereo partly shown) [example 30], in that order: 4 min, 28 h and 19 h.
